Read-outs that look alike come from different tables or passages of the source.
System: Dkk1-LRP5-TCF-Luciferase
Assay: Functional Dkk1-LRP5-TCF-Luciferase Assay in U2OS Cells
Settings: for fold induction at 2 µM / fold induction at 20 µM / EC50: Homo sapiens, U2OS; for A = MAX FOLD Induction/DMSO CONTROL: maximum fold induction over DMSO control
[1] = read-out: B = TCF ACTIVITY/DMSO CONTROL Fold induction @ 2.0 uM, 2.0 uM compound
[2] = read-out: C = TCF ACTIVITY/DMSO CONTROL Fold induction @ 20.0 uM, 20.0 uM compound

Structure (SMILES)	EC50 [µM]	A = MAX FOLD Induction/DMSO CONTROL [fold]	C = TCF ACTIVITY/DMSO CONTROL Fold induction @ 20.0 uM (20.0 uM compound, 20 µM) [fold]	fold induction at 2 µM [1]	fold induction at 20 µM [2]	fold induction at 2 µM (read-out: B = TCF ACTIVITY/DMSO CONTROL Fold induction @ 2.0 uM)	fold induction at 20 µM (read-out: C = TCF ACTIVITY/DMSO CONTROL Fold induction @ 20.0 uM)
CC(=O)NCC1CCN(c2nccc(-c3ccc4ccccc4c3)n2)C1 (centres unmarked) [N-({1-[4-(2-naphthyl)pyrimidin-2-yl]pyrrolidin-3-yl}methyl)acetamide]	–	–	–	0.95	1.5	–	–
Cc1ccc(S(=O)(=O)N2CCC(N(C)c3nccc(-c4ccc5ccccc5c4)n3)CC2)cc1 [N-methyl-N-{1-[(4-methylphenyl)sulfonyl]piperidin-4-yl}-4-(2-naphthyl)pyrimidin-2-amine]	–	–	–	1.65	–	–	–
O=C(N1CCCC1)N1CCC(Nc2nccc(-c3ccc4ccccc4c3)n2)CC1 [4-(2-naphthyl)-N-[1-(pyrrolidin-1-ylcarbonyl)piperidin-4-yl]pyrimidin-2-amine]	–	–	–	1.06	0.96	–	–
O=Cc1ccc2cc(-c3ccnc(N4CCC(CNC(=O)C(F)(F)F)CC4)n3)ccc2c1 [2,2,2-trifluoro-N-({1-[4-(6-formyl-2-naphthyl)pyrimidin-2-yl]piperidin-4-yl}methyl)acetamide]	–	–	–	1.11	0.04	–	–
CCOC(=O)N1CCCN(c2nccc(-c3ccc4ccccc4c3)n2)CC1 [ethyl 4-[4-(2-naphthyl)pyrimidin-2-yl]-1,4-diazepane-1-carboxylate]	30	1.790	–	–	2.49	–	–
O=C(N[C@H]1CCN(c2nccc(-c3ccc4ccccc4c3)n2)C1)N1CCCC1 [N-{(3S)-1-[4-(2-naphthyl)pyrimidin-2-yl]pyrrolidin-3-yl}pyrrolidine-1-carboxamide]	–	–	–	1.89	–	–	–
NCCN1CCN(c2nccc(-c3ccc4ccccc4c3)n2)CC1 [(2-{4-[4-(2-naphthyl)pyrimidin-2-yl]piperazin-1-yl}ethyl)amine]	–	–	–	–	–	1	1.79
CCOC(=O)N(CCN1CCN(c2nccc(-c3ccc4ccccc4c3)n2)CC1)C(=O)OCC [diethyl (2-{4-[4-(2-naphthyl)pyrimidin-2-yl]piperazin-1-yl}ethyl)imidodicarbonate]	–	–	–	1.72	–	–	–
O=C(N[C@@H]1CCN(c2nccc(-c3ccc4ccccc4c3)n2)C1)C(F)(F)F [2,2,2-trifluoro-N-{(3R)-1-[4-(2-naphthyl)pyrimidin-2-yl]pyrrolidin-3-yl}acetamide]	–	–	–	1.97	–	–	–
CCNC(=O)NCC1CN(c2nccc(-c3ccc4ccccc4c3)n2)C1 [N-ethyl-N′-({1-[4-(2-naphthyl)pyrimidin-2-yl]azetidin-3-yl}methyl)urea]	–	–	–	–	1.06	–	–
c1ccc2cc(-c3ccnc(N4CC5CCNC5C4)n3)ccc2c1 (centres unmarked) [5-(4-naphthalen-2-ylpyrimidin-2-yl)octahydropyrrolo[3,4-b]pyrrole]	–	–	–	1.5	–	–	–
c1ccc2cc(-c3ccnc(N[C@@H]4CCNC4)n3)ccc2c1 [4-(2-naphthyl)-N-[(3R)-pyrrolidin-3-yl]pyrimidin-2-amine]	9.23	6.560	–	1.76	3.98	–	–
CC(C)(C)OC(=O)NCC1CCCN(c2nccc(-c3ccc4ccccc4c3)n2)C1 (centres unmarked) [tert-butyl ({1-[4-(2-naphthyl)pyrimidin-2-yl]piperidin-3-yl}methyl)carbamate]	–	–	–	0.91	1.94	–	–
FC(F)(F)CN[C@H]1CCN(c2nccc(-c3ccc4ccccc4c3)n2)C1 [(3S)-1-[4-(2-naphthyl)pyrimidin-2-yl]-N-(2,2,2-trifluoroethyl)pyrrolidin-3-amine]	–	–	–	0.83	1.38	–	–
c1ccc2cc(-c3ccnc(N4CC[C@H](Cn5ccnc5)C4)n3)ccc2c1 [2-[(3R)-3-(1H-imidazol-1-ylmethyl)pyrrolidin-1-yl]-4-(2-naphthyl)pyrimidine]	–	3.290	–	1.95	3.04	–	–
c1ccc2cc(-c3ccnc(N4CC[C@@H](N5CCCCCC5)C4)n3)ccc2c1 [1-{(3R)-1-[4-(2-naphthyl)pyrimidin-2-yl]pyrrolidin-3-yl}azepane]	–	–	–	1.25	1.3	–	–

Second part, led by results:

EC50 [µM]	A = MAX FOLD Induction/DMSO CONTROL [fold]	C = TCF ACTIVITY/DMSO CONTROL Fold induction @ 20.0 uM (20.0 uM compound, 20 µM) [fold]	Structure (SMILES)	fold induction at 2 µM [1]	fold induction at 20 µM [2]	fold induction at 2 µM (read-out: B = TCF ACTIVITY/DMSO CONTROL Fold induction @ 2.0 uM)	fold induction at 20 µM (read-out: C = TCF ACTIVITY/DMSO CONTROL Fold induction @ 20.0 uM)
1.01	6.950	–	O[C@H]1CCCN(CC2CCN(c3nccc(-c4ccc5ccccc5c4)n3)C2)C1 (stereo partly drawn) [(3S)-1-({1-[4-(2-naphthyl)pyrimidin-2-yl]pyrrolidin-3-yl}methyl)piperidin-3-ol]	4.34	–	–	–
1.27	2.230	–	NC(=O)C1CCCN(c2nccc(-c3ccc4ccccc4c3)n2)C1 (centres unmarked) [1-[4-(2-naphthyl)pyrimidin-2-yl]piperidine-3-carboxamide]	2.17	2.7	–	–
7.5	2.405	–	c1ccc2cc(-c3ccnc(N4CC[C@H](N5CCOCC5)C4)n3)ccc2c1 [4-{(3S)-1-[4-(2-naphthyl)pyrimidin-2-yl]pyrrolidin-3-yl}morpholine]	1.17	3.06	–	–
–	2.000	–	O=C1CCCCN1C[C@H]1CCN(c2nccc(-c3ccc4ccccc4c3)n2)C1 [1-({(3S)-1-[4-(2-naphthyl)pyrimidin-2-yl]pyrrolidin-3-yl}methyl)piperidin-2-one]	1.07	2.45	–	–
4.6	2.400	3.000	c1ccc2cc(-c3ccnc(N4CCN(CCN5CCOCC5)CC4)n3)ccc2c1 [4-(2-{4-[4-(2-naphthyl)pyrimidin-2-yl]piperazin-1-yl}ethyl)morpholine]	1.53	3.49	–	–
3.96	2.050	–	CN(C)S(=O)(=O)N1CC[C@H](Nc2nccc(-c3ccc4ccccc4c3)n2)C1 [(3S)—N,N-dimethyl-3-{[4-(2-naphthyl)pyrimidin-2-yl]amino}pyrrolidine-1-sulfonamide]	1.09	2.01	–	–
6.85	–	–	O=C1CCCCN1C[C@@H]1CCN(c2nccc(-c3ccc4ccccc4c3)n2)C1 [1-({(3R)-1-[4-(2-naphthyl)pyrimidin-2-yl]pyrrolidin-3-yl}methyl)piperidin-2-one]	1.14	2.33	–	–
2.77	2.725	–	COC(=O)N1CC[C@H](Nc2nccc(-c3ccc4ccccc4c3)n2)C1 [methyl (3S)-3-{[4-(2-naphthyl)pyrimidin-2-yl]amino}pyrrolidine-1-carboxylate]	1.65	2.12	–	–
–	1.230	–	Cc1ccc(S(=O)(=O)N[C@H]2CC[C@H](Nc3nccc(-c4ccc5ccccc5c4)n3)CC2)cc1 [4-methyl-N-(trans-4-{[4-(2-naphthyl)pyrimidin-2-yl]amino}cyclohexyl)benzenesulfonamide]	1.78	1.13	–	–
1.19	5.430	–	CN1CCN(CC2CCN(c3nccc(-c4ccc5ccccc5c4)n3)CC2)CC1 [2-{4-[(4-methylpiperazin-1-yl)methyl]piperidin-1-yl}-4-(2-naphthyl)pyrimidine]	5.46	–	–	–
–	1.340	–	CN1CCN(CC2CCN(c3nccc(-c4ccc5ccccc5c4)n3)C2)CC1 (centres unmarked) [2-{3-[(4-methylpiperazin-1-yl)methyl]pyrrolidin-1-yl}-4-(2-naphthyl)pyrimidine]	2.7	–	–	–
